Data on 61 molecules can be found in US20260207450A1, “ANTI-DANDRUFF COMPOSITIONS” (Firmenich SA, priority 2022, published 2026).

A value given as a limit tells only on which side of the number the result lay.

One assay has as its system M. restricta. The assay can be described thus: Disc-diffusion assay, additional perfumery materials in DMSO, M. restricta, 4 days. The conditions noted are these: Malassezia restricta, 96 h, read-out: Inhibition zone diameter (mm) on M. restricta. The class given is cell-based, Malassezia restricta. Here is the method: Anti-Malassezia effect of additional perfumery materials in DMSO was determined using disc-diffusion assay as described previously. Test samples solutions were prepared in DMSO to final concentrations of 0.5%, 1% or 2%. Discs (Whatman, 6 mm in diameter) were placed on inoculated agar plates. Aliquots (20 μL) of each sample solution was added to each disc. Agar plates were incubated at 30° C. for 4 days. After incubation, diameters of the clear inhibition zones around the discs were recorded
Anti-Malassezia effect of additional perfumery materials in DMSO was determined using disc-diffusion assay as described above. Test samples solutions were prepared in DMSO to final concentrations of 0.5%, 1% or 2%. Discs (Whatman, 6 mm in diameter) were placed on inoculated agar plates. Aliquots (20 μL) of each sample solution was added to each disc. Agar plates were incubated at 30° C. for 4 days. After incubation, diameters of the clear inhibition zones around the discs were recorded.
Anti-Malassezia effect of additional perfumery materials in solvent in DMSO was determined using disc-diffusion assay, as described previously. Test samples solutions are prepared in DMSO to final concentrations of 0.5%. Discs (Whatman, 6 mm in diameter) were placed on inoculated agar plates. Aliquots (20 μL) of each sample solution was added to each disc. Agar plates were incubated at 30° C. for 4 days. After incubation, diameters of the clear inhibition zones around the discs were measured.
Consider `c1ccc(Oc2ccccc2)cc1` [1,1′-oxydibenzene], for which the zone of inhibition at 0.5 % is 7.4 mm.

Still in this assay, the particulars now being: Malassezia restricta, 96 h; Table 18; 1% in DMSO, M. restricta, 4 days; read-out: Inhibition zone diameter (mm).
On to `CC(C)(O)Cc1ccc(CCC=O)cc1` [3-[4-(2-hydroxy-2-methylpropyl)phenyl]propanal], for which the zone of inhibition at 1 % amounted to 8.9 mm.

The assay is the same for the next values; noted with them: Malassezia restricta, 96 h; Table 18; 2% in DMSO, M. restricta, 4 days; read-out: Inhibition zone diameter (mm).
As to `CC(C)(O)Cc1ccc(CCC=O)cc1` [3-[4-(2-hydroxy-2-methylpropyl)phenyl]propanal], the zone of inhibition at 2 % stood at 16 mm.

The assay is the same for the next values; noted with them: Malassezia restricta, 96 h; Table 19; in DMSO (1% or 2%, not specified per value), M. restricta, 4 days; read-out: Inhibition zone diameter (mm).
`CC/C=C/CC/C=C/C=O` [(E,E)-2,6-nonadienal]: the zone of inhibition is more than 40 mm.

Consider `CCCCCCC/C=C\CCC=O` [(4Z)-4-dodecenal], for which the zone of inhibition was 7.4 mm.

For the molecule `CCCCC/C=C/C=C/C=O` [(E,E)-2,4-decadienal], the zone of inhibition is more than 40 mm.

As for `CCCCCCC=C/C=C/C=O` [(2E)-2,4-undecadienal], the zone of inhibition is 26.6 mm.

`CC/C=C\CCCCO` [(Z)-5-octen-1-ol]: the zone of inhibition amounted to 7.3 mm.

For `CCCCCC/C=C/CO` [(E)-2-nonen-1-ol], the zone of inhibition worked out at 7.5 mm.

On to `CCCC/C=C\CCO` [(Z)-3-octen-1-ol], for which the zone of inhibition was 7.1 mm.

With `CCCCCCC/C=C\C=O` [(Z)-2-decenal], the zone of inhibition is more than 40 mm.

Consider `CCCCCCCC=C/C=C/C=O` [(2E)-2,4-dodecadienal], for which the zone of inhibition worked out at 21.5 mm.

`CCCCCCCC/C=C/C=O` [(E)-2-undecenal]: the zone of inhibition is more than 40 mm.

Regarding `CC/C=C/C=C/C=O` [(2E,4E)-2,4-heptadienal], the zone of inhibition was more than 40 mm.

Take `CCCCC/C=C\CCC=O` [(Z)-4-decenal]: the zone of inhibition was determined as 7.2 mm.

Still in this assay, the particulars now being: Malassezia restricta, 96 h; Table 20; 0.5% in DMSO, 4 days; read-out: Inhibition zone diameter (mm) on M. restricta.
Take `Cc1ccc(CC=O)cc1` [(4-methylphenyl)acetaldehyde]: the zone of inhibition at 0.5 % is 10.6 mm.

For `CCCCCCCCCC(C)C=O` (racemic) [(+/−)-2-methylundecanal], the zone of inhibition at 0.5 % is 7.1 mm.

On to `CCCCCCCC=O` [octanal], for which the zone of inhibition at 0.5 % was 7.5 mm.

Consider `CC(C)=CCCC(C)CC=O` (racemic) [(+/−)-3,7-dimethyl-6-octenal], for which the zone of inhibition at 0.5 % worked out at 7.3 mm.

As to `COC(C)(C)C1CC=C(C)CC1` (centres unmarked) [4-(2-methoxy-2-propanyl)-1-methylcyclohexene], the zone of inhibition at 0.5 % is 7 mm.

For the molecule `CCCCC/C=C/C=O` [(E)-2-octenal], the zone of inhibition at 0.5 % came out at 24.8 mm.

As to `C=CC(C)CCCC(C)(C)O` (racemic) [(+/−)-2,6-dimethyl-7-octen-2-ol], the zone of inhibition at 0.5 % was 7.5 mm.

Consider `CNc1ccccc1C(=O)OC` [methyl 2-(methylamino)benzoate], for which the zone of inhibition at 0.5 % worked out at 7.4 mm.

On to `CC1=CCC(C/C=C(\C)CO)C1(C)C` (racemic) [(+/−)-(2E)-2-methyl-4-(2,2,3-trimethyl-3-cyclopenten-1-yl)-2-buten-1-ol], for which the zone of inhibition at 0.5 % turned out to be 7.6 mm.

Consider `CC1(C)C2CC=C(CCC=O)C1C2` (centres unmarked) [3-(6,6-dimethyl-bicyclo[3.1.1]hept-2-en-2-yl)propanal], for which the zone of inhibition at 0.5 % is 7.3 mm.

`CC1(C)CCC[C@]2(C)[C@H]3CCO[C@]3(C)CC[C@@H]12` [(−)-(3aR,5aS,9aS,9bR)-3a,6,6,9a-tetramethyldodecahydronaphtho[2,1-b]furan]: the zone of inhibition at 0.5 % was 7.7 mm.

Turning to `CCCCCCCCC=O` [nonanal], the zone of inhibition at 0.5 % was determined as 7.3 mm.

`CCCCCCCCCC/C=C/C=O` [(E)-2-tridecenal]: the zone of inhibition at 0.5 % was determined as 15.2 mm.

`CC(C)=CCC[C@@H](C)CC#N` [(−)-(R)-3,7-dimethyl-6-octenenitrile]: the zone of inhibition at 0.5 % stood at 7.2 mm.

As for `CC(C)CCCC(C)(C)O` [2,6-dimethyl-2-heptanol], the zone of inhibition at 0.5 % is 7.7 mm.

On to `CC/C=C\CCOC(=O)C(C)C` [(Z)-3-hexenyl isobutyrate], for which the zone of inhibition at 0.5 % came to 7.7 mm.

As to `CC(C)=CCCC(C)CCOCC=O` (racemic) [(+/−)-[(3,7-dimethyl-6-octen-1-yl)oxy]acetaldehyde], the zone of inhibition at 0.5 % came out at 9.7 mm.

As for `CC/C(=C\C[C@H]1CC=C(C)C1(C)C)CO` [(−)-(2E)-2-ethyl-4-[(1R)-2,2,3-trimethyl-3-cyclopenten-1-yl]-2-buten-1-ol], the zone of inhibition at 0.5 % was determined as 7.6 mm.

Regarding `COc1cc(C=O)ccc1OC(=O)C(C)C` [4-formyl-2-methoxyphenyl 2-methylpropanoate], the zone of inhibition at 0.5 % came out at 10.2 mm.

For `CCCCC/C=C/CCC=O` [(4E)-4-decenal], the zone of inhibition at 0.5 % was 7.2 mm.

Turning to `COC(OC)C(C)(C)CC=C(C)C` [6,6-dimethoxy-2,5,5-trimethyl-2-hexene], the zone of inhibition at 0.5 % is 7.2 mm.

For `CCCCCC/C=C/C=O` [(E)-2-nonenal], the zone of inhibition at 0.5 % was 38 mm.

Consider `CCC(=CCC1CC=C(C)C1(C)C)CO` (racemic) [(+/−)-2-ethyl-4-(2,2,3-trimethyl-3-cyclopenten-1-yl)-2-buten-1-ol], for which the zone of inhibition at 0.5 % worked out at 7 mm.

Turning to `CC1(C)CC=C(CCC=O)CC1` [3-(4,4-dimethyl-1-cyclohexen-1-yl)propanal], the zone of inhibition at 0.5 % stood at 8.9 mm.

`Cc1cc2c(cc1C=O)C(C)(C)[C@H](C)[C@@H](C)C2(C)C` (racemic) [(6RS,7RS)-3,5,5,6,7,8,8-heptamethyl-5,6,7,8-tetrahydro-2-naphthalenecarbaldehyde]: the zone of inhibition at 0.5 % was determined as 7.8 mm.

For the molecule `CC(C=O)c1ccccc1` (centres unmarked) [2-phenylpropanal], the zone of inhibition at 0.5 % came out at 7 mm.

In the case of `CC(CC=O)CCc1ccccc1` (racemic) [(+/−)-3-methyl-5-phenylpentanal], the zone of inhibition at 0.5 % is 7.6 mm.

In the case of `CC1=C(C=O)C(C)(C)CC=C1` [2,6,6-trimethyl-1,3-cyclohexadiene-1-carbaldehyde], the zone of inhibition at 0.5 % turned out to be 7.2 mm.

As to `CC(C)=CCC[C@@H](C)CC=O` [(+)-(R)-3,7-dimethyl-6-octenal], the zone of inhibition at 0.5 % was determined as 7.1 mm.

For the molecule `O=C1CCCCCCCCCCCC(=O)OCCO1` [1,4-dioxacycloheptadecane-5, 17-dione], the zone of inhibition at 0.5 % was determined as 7.3 mm.

`Cc1ccc2c(c1)CC(C)(CO)C2` (racemic) [(+/−)-(2,5-dimethyl-2,3-dihydro-1H-inden-2-yl)methanol]: the zone of inhibition at 0.5 % came to 7 mm.

For the molecule `Cc1ccc2c(c1)OCC(=O)CO2` [7-methyl-2H-1,5-benzodioxepin-3(4H)-one], the zone of inhibition at 0.5 % turned out to be 7 mm.

With `CCCCC/C=C\C=C\C(=O)OCC` [ethyl (2E,4Z)-2,4-decadienoate], the zone of inhibition at 0.5 % turned out to be 7.4 mm.

`CC(=CC=O)CCC(C)=C(C)C` [3,6,7-trimethyl-2,6-octadienal]: the zone of inhibition at 0.5 % was 8.7 mm.

Take `CC(C=O)Cc1ccc2c(c1)OCO2` (racemic) [(+/−)-3-(1,3-benzodioxol-5-yl)-2-methylpropanal]: the zone of inhibition at 0.5 % was 19 mm.

In the case of `CC(=O)OCCC1=CCC2CC1C2(C)C` (centres unmarked) [2-(6,6-dimethyl-bicyclo[3.1.1]hept-2-en-2-yl)ethyl acetate], the zone of inhibition at 0.5 % came to 7.5 mm.

With `CC/C=C\CCCCC=O` [(Z)-6-nonenal], the zone of inhibition at 0.5 % stood at 7.2 mm.

On to `C=C1CCCC(C)(C)C1C(=O)OC` (racemic) [(+/−)-methyl 2,2-dimethyl-6-methylidenecyclohexanecarboxylate], for which the zone of inhibition at 0.5 % is 7.5 mm.

`CCCCCC/C(C=O)=C\c1ccccc1` [(2E)-2-benzylideneoctanal]: the zone of inhibition at 0.5 % stood at 7.2 mm.

With `C/C(C=O)=C\c1ccccc1` [(2E)-2-methyl-3-phenyl-2-propenal], the zone of inhibition at 0.5 % came to 8.1 mm.

Turning to `CCCCCCCCC(C)C=O` (racemic) [(+/−)-2-methyldecanal], the zone of inhibition at 0.5 % turned out to be 7.1 mm.

Still in this assay, the particulars now being: Malassezia restricta, 96 h; read-out: Inhibition zone diameter (mm).
Take `C/C(=C\c1ccc(C)cc1)CC(C)C=O` (racemic) [(+/−)-(4E)-2,4-dimethyl-5-(4-methylphenyl)-4-pentenal]: the zone of inhibition at 0.5 % is 7.8 mm.

The assay is the same for the next values; noted with them: Table 19; in DMSO (0.5%, 1% or 2%, not specified per value), M. restricta, 4 days.
“(+/−)-(4Z)-4,8-dimethyl-4,9-decadienal + (+/−)-(4E)-4,8-dimethyl-4,9-decadienal”: the “Inhibition zone diameter (mm)” value came out at 7.3 mm.

Staying with this assay, now noted: Table 20; 0.5% in DMSO, 4 days.
Consider “(+)-(3S)-3-[(1R)-4-methyl-3-cyclohexen-1-yl]butanal + (+)-(3R)-3-[(1R)-4-methyl-3-cyclohexen-1-yl]butanal”, for which the “Inhibition zone diameter (mm) on M. restricta” value was 7.3 mm.

As for “(2R)-2-methyl-4-[(1R)-2,2,3-trimethyl-3-cyclopenten-1-yl]-4-pentenal + (2S)-2-methyl-4-[(1R)-2,2,3-trimethyl-3-cyclopenten-1-yl]-4-pentenal”, the “Inhibition zone diameter (mm) on M. restricta” value turned out to be 7.0 mm.

Regarding “cis-4-(2-methyl-2-propanyl)cyclohexyl acetate + trans-4-(2-methyl-2-propanyl)cyclohexyl acetate”, the “Inhibition zone diameter (mm) on M. restricta” value turned out to be 7.2 mm.

In the case of “(1RS,2RS)-2,4-dimethyl-3-cyclohexene-1-carbaldehyde + (1RS,2SR)-2,4-dimethyl-3-cyclohexene-1-carbaldehyde”, the “Inhibition zone diameter (mm) on M. restricta” value is 8.0 mm.
